Source: patent publication US8574871B2, “Genetically modified yeasts for the production of homogenous glycoproteins” (GLYCODE, priority 2007, dated 2013)

Experiments:
alpha-1,2-mannosidase I = assay: Mannosidase activity assay in yeast microsomes, with or without DMJ; assay type: biochemical, C. Elegans; settings: 120 μM DMJ, triplicate (FIG. 6)
Method: (§1) Mannosidase activity is measured by incubating for 4 hours at 37° C., with 4 mM of p-nitrophenyl-α-D-mannopyranoside with 100-200 μg of proteins (from total proteins or sub-cellular fractions) in 0.1 M of PBS, pH 6.5+/−120 μM DMJ (alpha-1,2-mannosidase I inhibitor) +/−12 μM SW (specific inhibitor of mannosidase II). Absorbance is measured at 405 nm.
The Adèle and Edgar yeasts, positive for the insertion of the expression cassette of mannosidase I in the gene URA3, are tested for their mannosidase I biochemical activity. […] The experiment was conducted in triplicate. We may observe in the wild S. cerevisiae and S. pombe strains, a mannosidase activity non-inhibited by DMJ.

mannosidase II = target: T1, mannosidase II (Mus musculus, UniProt P27046, V673G); assay: Mannosidase activity assay in Golgian yeast fractions, with or without swainsonine; assay type: biochemical; settings: 12 μM SW (FIG. 9)
T1 construct: Amplification of a 3,453 by fragment; expressed in transfected cells; host or cells: S. cerevisiae and S. pombe with the TEF-promoter cassette integrated in LEU2 (strains Anaïs / Enrique); Golgi fractions
T1 sequence (P27046 1-1150 V673G): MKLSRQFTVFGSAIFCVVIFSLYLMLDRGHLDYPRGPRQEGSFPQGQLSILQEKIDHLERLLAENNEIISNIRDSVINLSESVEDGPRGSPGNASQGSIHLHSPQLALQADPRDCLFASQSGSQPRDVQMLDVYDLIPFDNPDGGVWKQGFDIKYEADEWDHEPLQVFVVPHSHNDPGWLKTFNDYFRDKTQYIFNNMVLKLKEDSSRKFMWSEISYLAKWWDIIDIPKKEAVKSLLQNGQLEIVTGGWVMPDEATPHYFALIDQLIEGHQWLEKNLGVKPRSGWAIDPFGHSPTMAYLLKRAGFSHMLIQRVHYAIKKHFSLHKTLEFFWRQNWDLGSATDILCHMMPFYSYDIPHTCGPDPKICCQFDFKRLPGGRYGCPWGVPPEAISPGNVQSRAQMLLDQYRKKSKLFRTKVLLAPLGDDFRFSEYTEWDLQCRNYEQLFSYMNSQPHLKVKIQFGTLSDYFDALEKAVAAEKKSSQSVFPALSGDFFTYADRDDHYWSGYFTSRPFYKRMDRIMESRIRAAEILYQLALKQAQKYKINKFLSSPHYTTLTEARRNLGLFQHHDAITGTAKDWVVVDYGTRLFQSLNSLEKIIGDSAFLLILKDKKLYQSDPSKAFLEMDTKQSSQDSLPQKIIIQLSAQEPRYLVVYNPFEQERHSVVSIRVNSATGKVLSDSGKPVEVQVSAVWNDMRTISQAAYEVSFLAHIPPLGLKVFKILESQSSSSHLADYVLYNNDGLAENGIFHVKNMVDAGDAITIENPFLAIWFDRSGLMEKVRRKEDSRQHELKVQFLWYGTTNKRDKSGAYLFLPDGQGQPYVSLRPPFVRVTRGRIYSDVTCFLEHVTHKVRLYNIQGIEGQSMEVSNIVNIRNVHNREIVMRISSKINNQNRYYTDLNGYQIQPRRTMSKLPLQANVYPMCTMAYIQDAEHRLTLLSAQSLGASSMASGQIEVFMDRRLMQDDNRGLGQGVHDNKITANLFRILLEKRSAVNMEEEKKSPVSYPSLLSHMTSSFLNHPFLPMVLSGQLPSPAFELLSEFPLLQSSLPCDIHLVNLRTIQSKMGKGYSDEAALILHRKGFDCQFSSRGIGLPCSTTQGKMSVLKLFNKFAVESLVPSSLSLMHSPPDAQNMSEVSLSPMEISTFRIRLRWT
Method: as §1
According to FIG. 9, we may observe in the parent S. cerevisiae and S. pombe strains a mannosidase activity insensitive to the inhibitory action of swainsonine. […] Further as, the measured mannosidase II activity is detected in Golgian yeast fractions, we may infer that this enzyme is properly expressed in the secretion route at the Golgian system.

Which “inhibition of mannosidase activity by DMJ” value (alpha-1,2-mannosidase I; selected S. cerevisiae and S. pombe strains with mannosidase I cassette) does the source give for OC[C@H]1NC[C@@H](O)[C@@H](O)[C@@H]1O [DMJ, deoxymannojirimycin] here?
Its value is “significant inhibition”.

What about the “inhibition of mannosidase activity by DMJ” value (alpha-1,2-mannosidase I; wild S. cerevisiae and S. pombe strains) of the same molecule?
Its value is “non-inhibited”.

With O[C@H]1[C@H]2[C@H](O)CCCN2C[C@H]1O [swainsonine] as the molecule, how does the “inhibition of mannosidase activity by swainsonine” value (mannosidase II; parent S. cerevisiae and S. pombe strains) read?
Its value is “insensitive”.

And the “inhibition of mannosidase activity by swainsonine” value (mannosidase II; selected S. cerevisiae and S. pombe strains with mannosidase II cassette)?
Its value is “significant inhibition”.
